pEC50, pIC50: −log10 of the molar value.
What was measured:
[1] = molecular target: 15-LOX2 (Homo sapiens (Human), UniProt O15296); assay: Selectivity versus 15-LOX2; format: biochemical
[2] = system: Rat Primary Neuron; assay: Rat Primary Neuron EC50; format: cell-based
[3] = system: experimental stroke model in mice (MCAO); assay: Long-term outcome after MCAO: Y maze; format: in vivo, mouse; settings: 40 mg/kg i.v. 2 hours post reperfusion, versus vehicle
Method: Long-term outcome experiment: 40 mg/kg cmpd. 1 delivered I.V. 2 hours post reperfusion, same as short term, compared to vehicle (10% solutol/90% PEG400). 45 mice operated, and 27 survived, mice were sacrificed on day 30.

[4] = molecular target: h12/15-LOX (Homo sapiens (Human), UniProt P16050); assay: 12/15-LOX enzyme inhibition IC50 assay (Examples 1 and 2); format: biochemical
Method: Enzyme was then added to the cuvettes. […] The % inhibition for each test compound concentration were calculated as follows: […]

[5] = molecular target: Human 12/15-LOX E. coli (Homo sapiens (Human), UniProt P16050); assay: Human 12/15-LOX E. coli IC50; format: biochemical
[6] = molecular target: COX-2 (Homo sapiens (Human), UniProt P35354); assay: Selectivity versus COX-2; format: biochemical
[7] = molecular target: Mouse 12/15-LOX E. coli (Mus musculus (Mouse), UniProt P39654); assay: Mouse 12/15-LOX E. coli IC50; format: biochemical
[8] = Metabolic stability of exemplified compounds (Example 4); format: in vitro ADME

Chain of h12/15-LOX (P16050 whole entry): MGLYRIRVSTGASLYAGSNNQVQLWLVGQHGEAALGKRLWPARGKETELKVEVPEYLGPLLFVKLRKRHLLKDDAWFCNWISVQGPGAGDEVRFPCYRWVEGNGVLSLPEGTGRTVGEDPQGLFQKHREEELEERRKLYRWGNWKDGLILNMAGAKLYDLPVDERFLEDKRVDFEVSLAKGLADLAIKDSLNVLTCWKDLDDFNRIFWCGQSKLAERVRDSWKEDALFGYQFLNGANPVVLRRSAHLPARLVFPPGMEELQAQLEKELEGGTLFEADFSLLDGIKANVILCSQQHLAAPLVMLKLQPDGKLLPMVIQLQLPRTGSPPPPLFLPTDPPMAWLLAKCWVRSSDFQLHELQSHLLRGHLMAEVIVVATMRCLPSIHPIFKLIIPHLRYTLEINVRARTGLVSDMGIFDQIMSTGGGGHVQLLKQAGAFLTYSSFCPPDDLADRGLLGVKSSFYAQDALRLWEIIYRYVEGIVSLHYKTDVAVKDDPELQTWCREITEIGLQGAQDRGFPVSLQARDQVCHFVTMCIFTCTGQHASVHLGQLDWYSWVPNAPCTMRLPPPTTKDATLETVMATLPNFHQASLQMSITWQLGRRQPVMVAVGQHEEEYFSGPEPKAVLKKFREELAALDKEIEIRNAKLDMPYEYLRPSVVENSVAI
Chain of Human 12/15-LOX E. coli (P16050 whole entry): as above
Chain of Mouse 12/15-LOX E. coli (P39654 whole entry): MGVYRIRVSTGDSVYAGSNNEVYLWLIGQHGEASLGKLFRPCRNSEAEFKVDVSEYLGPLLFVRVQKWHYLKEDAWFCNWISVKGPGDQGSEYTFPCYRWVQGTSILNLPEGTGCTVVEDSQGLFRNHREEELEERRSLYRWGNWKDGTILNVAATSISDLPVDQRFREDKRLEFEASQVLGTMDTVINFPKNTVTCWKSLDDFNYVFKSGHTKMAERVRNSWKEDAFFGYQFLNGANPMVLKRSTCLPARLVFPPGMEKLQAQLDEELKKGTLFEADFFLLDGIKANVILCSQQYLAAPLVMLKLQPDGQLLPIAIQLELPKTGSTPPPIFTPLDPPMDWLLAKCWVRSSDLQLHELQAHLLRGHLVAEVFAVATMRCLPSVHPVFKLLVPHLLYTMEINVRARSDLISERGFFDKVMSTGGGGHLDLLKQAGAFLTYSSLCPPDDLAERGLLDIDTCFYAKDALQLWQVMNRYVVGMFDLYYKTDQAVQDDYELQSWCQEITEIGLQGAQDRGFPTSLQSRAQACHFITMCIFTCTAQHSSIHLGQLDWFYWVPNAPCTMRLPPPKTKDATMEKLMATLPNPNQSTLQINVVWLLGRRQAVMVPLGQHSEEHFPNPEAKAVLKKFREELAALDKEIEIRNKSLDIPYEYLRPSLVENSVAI
Chain of COX-2 (P35354 18-604): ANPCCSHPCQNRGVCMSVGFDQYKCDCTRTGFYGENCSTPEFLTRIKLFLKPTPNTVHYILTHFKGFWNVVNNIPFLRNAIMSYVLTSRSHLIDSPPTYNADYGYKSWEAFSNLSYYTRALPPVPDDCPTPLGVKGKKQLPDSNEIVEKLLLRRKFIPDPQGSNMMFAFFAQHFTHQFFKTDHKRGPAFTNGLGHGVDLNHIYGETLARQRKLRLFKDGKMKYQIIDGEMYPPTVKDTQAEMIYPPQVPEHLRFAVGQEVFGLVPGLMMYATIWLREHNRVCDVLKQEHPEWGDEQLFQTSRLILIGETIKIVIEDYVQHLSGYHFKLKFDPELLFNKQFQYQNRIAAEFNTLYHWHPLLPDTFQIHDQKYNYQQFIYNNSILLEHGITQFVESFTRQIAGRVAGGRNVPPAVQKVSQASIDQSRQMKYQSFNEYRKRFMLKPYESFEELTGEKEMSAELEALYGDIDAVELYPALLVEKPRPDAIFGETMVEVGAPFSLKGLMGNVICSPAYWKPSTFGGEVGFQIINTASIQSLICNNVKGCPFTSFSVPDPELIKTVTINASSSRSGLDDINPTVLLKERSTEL
Chain of 15-LOX2 (O15296 whole entry): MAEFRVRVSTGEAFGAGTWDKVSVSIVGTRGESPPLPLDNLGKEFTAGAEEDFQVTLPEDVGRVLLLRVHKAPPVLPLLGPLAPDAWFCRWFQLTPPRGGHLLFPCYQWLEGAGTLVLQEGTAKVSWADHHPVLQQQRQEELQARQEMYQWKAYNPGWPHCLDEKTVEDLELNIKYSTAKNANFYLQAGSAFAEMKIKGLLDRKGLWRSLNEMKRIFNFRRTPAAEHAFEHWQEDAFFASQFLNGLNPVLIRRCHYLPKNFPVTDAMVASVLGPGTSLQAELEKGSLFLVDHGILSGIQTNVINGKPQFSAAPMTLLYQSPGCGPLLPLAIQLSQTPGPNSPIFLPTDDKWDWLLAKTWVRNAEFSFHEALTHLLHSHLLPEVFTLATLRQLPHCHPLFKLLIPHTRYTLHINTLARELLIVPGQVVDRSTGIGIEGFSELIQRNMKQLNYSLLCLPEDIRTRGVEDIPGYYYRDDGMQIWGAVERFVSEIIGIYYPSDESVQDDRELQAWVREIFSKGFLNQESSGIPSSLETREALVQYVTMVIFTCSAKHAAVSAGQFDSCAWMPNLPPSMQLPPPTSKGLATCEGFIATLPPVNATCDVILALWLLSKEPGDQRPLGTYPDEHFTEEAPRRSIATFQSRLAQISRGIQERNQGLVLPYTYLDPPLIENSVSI

CNc1oc(-c2cc(Cl)cc(Cl)c2Cl)nc1C#N [Compound 1, 5-(methylamino)-2-(2,3,5-trichlorophenyl) oxazole-4-carbonitrile]
selectivity over 15-LOX2 [1]: > 400 fold
pEC50 [2]: 5.02
Y maze % alternation [3]: no significant differences
Y maze entry number [3]: no difference between treatment groups
pIC50 [4]: 6.92
Emax ([4]; h12/15-LOX, read-out: Max % inhibition): 94%
Human 12/15-LOX E. coli % max [5]: 88%
pIC50 [5]: 6.96
selectivity over COX-2 [6]: > 400 fold
pIC50 [7]: 6.74
Mouse 12/15-LOX E. coli % max [7]: 82%
Extr (EH) ([8]; Human liver microsomes): ** (“**” 50-100%)
microsomal CLint ([8]; Human liver microsomes): 20 to 100 µL/min/mg
Extr (EH) ([8]; Mouse liver microsomes): ** (“**” 50-100%)
microsomal CLint ([8]; Mouse liver microsomes): 20 to 100 µL/min/mg
Extr (EH) ([8]; Rat liver microsomes): * (“*” <50%)
microsomal CLint ([8]; Rat liver microsomes): < 20 µL/min/mg
